Data from patent publication US20090163517A1, “BENZOOXAZOLE, OXAZOLOPYRIDINE, BENZOTHIAZOLE AND THIAZOLOPYRIDINE DERIVATIVES” (priority 2005, published 2009).

Target: T1, human subtype 5 somatostatin receptor (Homo sapiens, UniProt P35346)
T1 construct: host or cells: CHO cell line, stably transfected; membranes prepared by sonication and centrifugation
Assay: SSTR5 radioligand binding on membranes of CHO cells expressing the human receptor (125I-labeled 11-Tyr somatostatin-14 tracer)
Settings: Ki calculated from IC50 by the Cheng-Prussoff equation, 0.05 nM 125I tracer, 1 hour at room temperature, read-out: SSTR 5 Ki
Method: A CHO cell line stably transfected with a plasmid encoding the human subtype 5 somatostatin receptor (GenBank accession number D16827) was obtained from Euroscreen. Cells were cultured and used for binding and functional assays.
Membranes of these cells were prepared by sonication in the presence of protease inhibitors and subsequent fractionating centrifugation. The protein concentration in the membrane preparation was determined using a commercial kit (BCA kit, Pierce, USA). Membranes were stored at −80° C. until use. After thawing, membranes were diluted in assay buffer (50 mM TRIS-HCl at pH 7.4, 5 mM MgCl2 and 0.20% BSA (bovine serum albumine)) and subjected to dounce homogenization.
For binding studies, 0.1 mL membrane suspension, corresponding to app. 6×10^−15 mol receptor, was incubated for 1 hour at room temperature with 0.05 nM ^125I-labeled tracer (11-Tyr somatostatin-14, Perkin-Elmer) and either test compounds in varying concentrations or, for the determination of non-specific binding, 0.001 mM non-labeled somatostatin-14 (Sigma-Aldrich, Buchs, Switzerland). The incubation was stopped by filtration through GF/B glassfiber filters (Unifilter, Perkin-Elmer) and washing with ice-cold wash buffer (50 mM Tris-HCl at pH 7.4). The bound radioactivity was measured after application of a scintillation cocktail (Microscint 40, Perkin-Elmer) and expressed as disintegrations per minute (dpm).
The receptor concentration was determined in a prior saturation experiment where a fixed, arbitrary amount of membranes was incubated with a concentration range of radio-labeled tracer. This allows estimating the total number of specific binding sites per amount of protein (i.e., Bmax), typically between 1 and 5 pmol/mg.
The concentration of the test compound required to result in half maximal inhibition of binding of the radio-labeled tracer (IC50) was estimated from a concentration-versus-dpm graph. The binding affinity (Ki) was calculated from the IC50 by applying the Cheng-Prussoff equation for single binding sites.

T1 sequence (P35346 whole entry): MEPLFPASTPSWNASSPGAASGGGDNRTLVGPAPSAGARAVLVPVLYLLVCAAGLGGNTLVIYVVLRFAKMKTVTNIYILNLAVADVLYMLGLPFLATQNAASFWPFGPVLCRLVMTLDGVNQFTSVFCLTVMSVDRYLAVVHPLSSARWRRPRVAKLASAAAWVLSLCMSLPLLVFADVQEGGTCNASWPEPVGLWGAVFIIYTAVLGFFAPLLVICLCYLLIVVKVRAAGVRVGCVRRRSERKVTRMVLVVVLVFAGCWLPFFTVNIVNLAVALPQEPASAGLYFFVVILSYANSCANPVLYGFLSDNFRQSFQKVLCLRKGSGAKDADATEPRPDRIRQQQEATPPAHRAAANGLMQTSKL

SMILES	Ki [nM]
CCOc1cc(CN2CCC(Nc3nc4c(N)cccc4o3)CC2)cc(OCC)c1-n1cccc1 [Example 23, N^2-[1-(3,5-Diethoxy-4-pyrrol-1-yl-benzyl)-piperidin-4-yl]-benzooxazole-2,4-diamine]	6
CCOc1cc(CN2CCC(Nc3nc4ccc(C(=O)O)cc4o3)CC2)cc(OCC)c1N [Example 71, 2-[1-(4-Amino-3,5-diethoxy-benzyl)-piperidin-4-ylamino]-benzooxazole-6-carboxylic Acid]	44
CCOc1cc(CN2CCC(Nc3nc4c([N+](=O)[O-])cccc4o3)CC2)ccc1F [Example 73, [1-(3-Ethoxy-4-fluoro-benzyl)-piperidin-4-yl]-(4-nitro-benzooxazol-2-yl)-amine]	223
